Among the data in patent US9914731B2, “Pyrazolo[1,5-a]pyridine derivatives and methods of their use” (Ignyta, Inc., priority 2013, dated 2018) are IC50 values, retold here.

In general, IC50 refers to the concentration at which inhibition is half-maximal.

Assay [1] has as its target recombinant human baculovirus-expressed AXL (Homo sapiens (Human), UniProt P30530). In words: AXL kinase assay (HTRF KinEASE). The format is biochemical. The settings on record: average of two or more determinations.
Assay [2] deals with recombinant human baculovirus-expressed cMET (Homo sapiens (Human), UniProt P08581). In words: c-MET kinase assay (HTRF KinEASE). The format is biochemical. The following applies: average of two or more determinations; read-out: c-MET IC50.

Regarding `Cc1ccc(C(=O)Nc2ccc(Oc3cc(-c4cn(C)cn4)cn4nccc34)c(F)c2)c(=O)n1-c1ccc(F)cc1` [Example 91, 1-(4-Fluoro-phenyl)-6-methyl-2-oxo-1,2-dihydro-pyridine-3-carboxylic acid {3-fluoro-4-[6-(1-methyl-1H-imidazol-4-yl)-pyrazolo[1,5-a]pyridin-4-yloxy]-phenyl}-amide], the IC50 in assay [1] and in assay [2] was less than 10 nM each time.
On to `O=C(Nc1ccc(Oc2cc(-c3cn[nH]c3)cn3nccc23)c(F)c1)c1cccn(-c2ccc(F)cc2)c1=O` [Example 42, 1-(4-Fluoro-phenyl)-2-oxo-1,2-dihydro-pyridine-3-carboxylic acid {3-fluoro-4-[6-(1H-pyrazol-4-yl)-pyrazolo[1,5-a]pyridine-4-yloxy]-phenyl}-amide], for which the IC50 in assay [1] and in assay [2] was less than 10 nM in each case.
For the compound `O=C(Nc1ccc(Oc2cc(N3CCC(O)CC3)cn3nccc23)c(F)c1)c1cccn(-c2ccc(F)cc2)c1=O` [Example 68, 1-(4-Fluoro-phenyl)-2-oxo-1,2-dihydro-pyridine-3-carboxylic acid{3-fluoro-4-[6-(4-hydroxy-piperidin-1-yl)-pyrazolo[1,5-a]pyridin-4-yloxy]-phenyl}-amide], the IC50 in assay [1] and in assay [2] was less than 10 nM throughout.
As to `CCn1cc(C(=O)Nc2ccc(Oc3cc(-c4cn(C)cn4)cn4nccc34)cc2)c(=O)n(-c2ccc(F)cc2)c1=O` [Example 113, 1-Ethyl-3-(4-fluoro-phenyl)-2,4-dioxo-1,2,3,4-tetrahydro-pyrimidine-5-carboxylic acid {4-[6-(1-methyl-1H-imidazol-4-yl)-pyrazolo[1,5-a]pyridin-4-yloxy]-phenyl}-amide], the IC50 in assay [1] and in assay [2] was less than 10 nM in each case.
Consider `CCn1cc(C(=O)Nc2ccc(Oc3cc(-c4cscn4)cn4nccc34)c(F)c2)c(=O)n(-c2ccc(F)cc2)c1=O` [Example 101, 1-Ethyl-3-(4-fluoro-phenyl)-2,4-dioxo-1,2,3,4-tetrahydro-pyrimidine-5-carboxylic acid[3-fluoro-4-(6-thiazol-4-yl-pyrazolo[1,5-a]pyridin-4-yloxy)-phenyl]-amide], for which the IC50 in assay [1] and in assay [2] was less than 10 nM each time.
For the compound `Cn1cnc(-c2cc(Oc3ccc(NC(=O)c4cccn(-c5ccc(F)cc5)c4=O)cc3F)c3ccnn3c2)c1` [Example 88, 1-(4-Fluoro-phenyl)-2-oxo-1,2-dihydro-pyridine-3-carboxylic acid {3-fluoro-4-[6-(1-methyl-1H-imidazol-4-yl)-pyrazolo[1,5-a]pyridin-4-yloxy]-phenyl}-amide], the IC50 in assay [1] and in assay [2] was less than 10 nM throughout.
As for `CCOCCn1cc(C(=O)Nc2ccc(Oc3cc(-c4cnn(C)c4)cn4nccc34)c(F)c2)c(=O)n(-c2ccc(F)cc2)c1=O` [Example 31, 1-(2-Ethoxy-ethyl)-3-(4-fluoro-phenyl)-2,4-dioxo-1,2,3,4-tetrahydro-pyrimidine-5-carboxylic acid {3-fluoro-4-[6-(1-methyl-1H-pyrazol-4-yl)-pyrazolo[1,5-a]pyridin-4-yloxy]-phenyl}-amide], the half-maximal inhibitory concentration (IC50) in assay [1] and in assay [2] was less than 10 nM in each case.
In the case of `Cn1cc(Nc2cc(Oc3ccc(NC(=O)c4cccn(-c5ccc(F)cc5)c4=O)cc3F)c3ccnn3c2)cn1` [Example 79, 1-(4-Fluoro-phenyl)-2-oxo-1,2-dihydro-pyridine-3-carboxylic acid {3-fluoro-4-[6-(1-methyl-1H-pyrazol-4-ylamino)-pyrazolo[1,5-a]pyridin-4-yloxy]-phenyl}-amide], the half-maximal inhibitory concentration (IC50) in assay [1] and in assay [2] was less than 10 nM throughout.
With `CCn1cc(C(=O)Nc2ccc(Oc3cc(-c4cn(C)cn4)cn4nccc34)c(F)c2)c(=O)n(-c2ccc(F)cc2)c1=O` [Example 93, 1-Ethyl-3-(4-fluoro-phenyl)-2,4-dioxo-1,2,3,4-tetrahydro-pyrimidine-5-carboxylic acid {3-fluoro-4-[6-(1-methyl-1H-imidazol-4-yl)-pyrazolo[1,5-a]pyridin-4-yloxy]-phenyl}-amide], the IC50 in assay [1] and in assay [2] was less than 10 nM in each case.
As for `O=C(Nc1ccc(Oc2cc(-c3cscn3)cn3nccc23)c(F)c1)c1cccn(-c2ccc(F)cc2)c1=O` [Example 102, 1-(4-Fluoro-phenyl)-2-oxo-1,2-dihydro-pyridine-3-carboxylic acid[3-fluoro-4-(6-thiazol-4-yl-pyrazolo[1,5-a]pyridin-4-yloxy)-phenyl]-amide], the half-inhibitory concentration (IC50) in assay [1] and in assay [2] was less than 10 nM in each case.
Take `CC(C)n1nc(C(=O)Nc2ccc(Oc3cc(-c4cn(C)cn4)cn4nccc34)c(F)c2)c(=O)n(-c2ccc(F)cc2)c1=O` [Example 129, 4-(4-Fluoro-phenyl)-2-isopropyl-3,5-dioxo-2,3,4,5-tetrahydro-1,2,4-triazine-6-carboxylic acid{3-fluoro-4-[6-(1-methyl-1H-imidazol-4-yl)-pyrazolo[1,5-a]pyridin-4-yloxy]-phenyl}-amide]: the IC50 in assay [1] and in assay [2] was less than 10 nM each time.
As to `Cn1cnc(-c2cc(Oc3ccc(NC(=O)c4cn(C)c(=O)n(-c5ccc(F)cc5)c4=O)cc3F)c3ccnn3c2)c1` [Example 95, 3-(4-Fluoro-phenyl)-1-methyl-2,4-dioxo-1,2,3,4-tetrahydro-pyrimidine-5-carboxylic acid{3-fluoro-4-[6-(1-methyl-1H-imidazol-4-yl)-pyrazolo[1,5-a]pyridin-4-yloxy]-phenyl}-amide], the concentration for half-maximal inhibition (IC50) in assay [1] and in assay [2] was less than 10 nM throughout.
Take `Cc1[nH]ncc1-c1cc(Oc2ccc(NC(=O)c3cccn(-c4ccc(F)cc4)c3=O)cc2F)c2ccnn2c1` [Example 44, 1-(4-Fluoro-phenyl)-2-oxo-1,2-dihydro-pyridine-3-carboxylic acid{3-fluoro-4-[6-(5-methyl-1H-pyrazol-4-yl)-pyrazolo[1,5-a]pyridin-4-yloxy]-phenyl}-amide]: the half-maximal inhibitory concentration (IC50) in assay [1] and in assay [2] was less than 10 nM in each case.
For the compound `CC(C)n1cc(C(=O)Nc2ccc(Oc3cc(-c4cncs4)cn4nccc34)c(F)c2)c(=O)n(-c2ccc(F)cc2)c1=O` [Example 103, 3-(4-Fluoro-phenyl)-1-isopropyl-2,4-dioxo-1,2,3,4-tetrahydro-pyrimidine-5-carboxylic acid[3-fluoro-4-(6-thiazol-5-yl-pyrazolo[1,5-a]pyridin-4-yloxy)-phenyl]-amide], the IC50 in assay [1] and in assay [2] was less than 10 nM in each case.
For the compound “1-Ethyl-3-(4-fluoro-phenyl)-2,4-dioxo-1,2,3,4-tetrahydro-pyrimidine-5-carboxylic acid {3-fluoro-4-[6-(1H-pyrazol-3-yl)-pyrazolo[1,5-a]pyridin-4-yloxy]-phenyl}-amide [Example 40]”, the IC50 in assay [1] and in assay [2] was less than 10 nM each time.
In the case of `Cn1cnc(-c2cc(Oc3ccc(NC(=O)c4c[nH]c(=O)n(-c5ccc(F)cc5)c4=O)cc3F)c3ccnn3c2)c1` [Example 107, 3-(4-Fluoro-phenyl)-2,4-dioxo-1,2,3,4-tetrahydro-pyrimidine-5-carboxylic acid{3-fluoro-4-[6-(1-methyl-1H-imidazol-4-yl)-pyrazolo[1,5-a]pyridin-4-yloxy]-phenyl}-amide], the IC50 in assay [1] and in assay [2] was less than 10 nM each time.
Consider `Cn1cnc(-c2cc(Oc3ccc(NC(=O)c4cn(CCOCc5ccccc5)c(=O)n(-c5ccc(F)cc5)c4=O)cc3F)c3ccnn3c2)c1` [Example 96, 1-(2-Benzyloxy-ethyl)-3-(4-fluoro-phenyl-)-2,4-dioxo-1,2,3,4-tetrahydro-pyrimidine-5-carboxylic acid{3-fluoro-4-[6-(1-methyl-1H-imidazol-4-yl)-pyrazolo[1,5-a]pyridin-4-yloxy]-phenyl}-amide], for which the IC50 in assay [1] was less than 10 nM; in assay [2] it was 10 to 100 nM.
For `O=C(Nc1ccc(Oc2cc(-c3cccnc3)cn3nccc23)c(F)c1)c1cccn(-c2ccc(F)cc2)c1=O` [Example 25, 1-(4-Fluoro-phenyl)-2-oxo-1,2-dihydro-pyridine-3-carboxylic acid 3-fluoro-4-(6-pyridin-3-yl-pyrazolo[1,5-a]pyridin-4-yloxy)-phenyl-amide] the same measures were less than 10 nM and less than 10 nM.
On to `O=C(Nc1ccc(Oc2cc(-c3ccc(N4CCOCC4)nc3)cn3nccc23)c(F)c1)c1cccn(-c2ccc(F)cc2)c1=O` [Example 26, 1-(4-Fluoro-phenyl)-2-oxo-1,2-dihydro-pyridine-3-carboxylic acid {3-fluoro-4-[6-(6-morpholin-4-yl-pyridin-3-yl)-pyrazolo[1,5-a]pyridin-4-yloxy]-phenyl}-amide], for which the IC50 in assay [1] and in assay [2] was less than 10 nM in each case.
With `CCn1cc(C(=O)Nc2ccc(Oc3cc(-c4cnn(C)c4)cn4nccc34)c(F)c2)c(=O)n(-c2ccc(F)cc2)c1=O` [Example 33, 1-Ethyl-3-(4-fluoro-phenyl)-2,4-dioxo-1,2,3,4-tetrahydro-pyrimidine-5-carboxylic acid {3-fluoro-4-[6-(1-methyl-1H-pyrazol-4-yl)-pyrazolo[1,5-a]pyridin-4-yloxy]-phenyl}-amide], the concentration for half-maximal inhibition (IC50) in assay [1] and in assay [2] was less than 10 nM each time.
In the case of `CCn1cc(C(=O)Nc2ccc(Oc3cc(NC(C)=O)cn4nccc34)c(F)c2)c(=O)n(-c2ccc(F)cc2)c1=O` [Example 142, 1-Ethyl-3-(4-fluoro-phenyl)-2,4-dioxo-1,2,3,4-tetrahydro-pyrimidine-5-carboxylic acid[4-(6-acetylamino-pyrazolo[1,5-a]pyridin-4-yloxy)-3-fluoro-phenyl]-amide], the IC50 in assay [1] and in assay [2] was less than 10 nM each time.
As for `CCn1cc(C(=O)Nc2ccc(Oc3cc(-c4cncs4)cn4nccc34)c(F)c2)c(=O)n(-c2ccc(F)cc2)c1=O` [Example 104, 1-Ethyl-3-(4-fluoro-phenyl)-2,4-dioxo-1,2,3,4-tetrahydro-pyrimidine-5-carboxylic acid[3-fluoro-4-(6-thiazol-5-yl-pyrazolo[1,5-a]pyridin-4-yloxy)-phenyl]-amide], the IC50 in assay [1] and in assay [2] was less than 10 nM throughout.
